Measured values reported in patent US11965006B2, “Antimicrobial and anti-cancer therapy” (UNIVERSITY OF PITTSBURGH—OF THE COMMONWEALTH SYSTEM OF …, priority 2016, dated 2024).
Ends that are not written are not given here.

B1: SPLUNC1-wt: wildtype version of SPLUNC1, a naturally secreted antimicrobial protein (protein, UniProt Q9NP55 20-256, looked up)
BPI fold-containing family A …: QFGGLPVPLDQTLPLNVNPALPLSPTGLAGSLTNALSNGLLSGGLLGILENLPLLDILKPGGGTSGGLLGGLLGKVTSVIPGLNNIIDIKVTDPQLLELGLVQSPDGHRLYVTIPLGIKLQVNTPLVGASLLRLAVKLDITAEILAVRDKQERIHLVLGDCTHSPGSLQISLLDGLGPLPIQGLLDSLTGILNKVLPELVQGNVCPLVNEVLRGLDITLVHDIVNMLIHGLQFVIKV

Legend:
[1] = tested on: primary Human bronchial epithelial (HBE) cells; assay: Toxicity to primary cells, tetrazolium-based viability assay; format: cell-based; details: treated 2 h
Description: Anti-cancer activity of SEQ ID No. 26 and its D-amino acid modified enantiomer, SEQ ID. No. 34. SEQ ID. No. 34 was compared to SEQ ID No. 26 for selective anti-cancer activities using cancer cell lines of the respiratory system. See FIG. 22A for H460 (large cell lung cancer) and Calu-1 (non-small cell lung cancer) and FIG. 22B for primary Human bronchial epithelial (HBE) cells. The cells were grown to 80% confluence and then treated with each AMP for 2 h. Percent viability was examined using a tetrazolium-based assay assessing the mitochondrial integrity. […] No. 34; however SEQ ID. […] No. 34. Therefore, SEQ ID. […] No. 26.

Hep2 epithelial cells = assay: Hep2 cytopathology in RSV plaque assay; format: cell-based; details: 32 μM
Description: Using a standard plaque assay, RSV replication was quantified in permissive Hep2 epithelial cells in the presence or absence of various AMPs. RSV plaque assays were used to determine the minimum dose required to induce Hep2 cytopathology and maximum anti-viral effects. Experimental controls included Hep2 cells+/−RSV and Hep-2 cells with AMP only.
Hep2 control cells without the AMP were also plated. Both plates were infected with the same dilution of A2 RSV virus. There is extensive sloughing of cells treated with the peptide (top plate) as compared to cells which were not (bottom plate), FIG. 18.

[2] = tested on: Enterococcus faecium MDR clinical isolates; format: cell-based; details: Table 3
Description: (§1) The bactericidal activities were examined using standard bacterial culture media (MHB) without the inclusion of human blood.
(§2) Tables 3 and 4 provide the MIC data for the tested AMPs against a variety of infectious species. The following strains were tested: Enterococcus faecium MDR clinical isolates Ef 25153 and Ef 26125; methicillin-resistant Staphylococcus aureus (MRSA) clinical isolates USA300 and 150-10; Klebsiella pneumonia MDR clinical isolates C3, C5, A5, D7 and E6; and Pseudomonas aeruginosa MDR clinical isolates PA 82-8 and PA 129-5. […] Table 5 provides the data for the D-amino acid substituted AMPs and their bactericidal activities against various Klebsiella pneumonia multi-drug resistant (MDR) clinical isolates. All odd number Kp bacteria (isolated prior to colistin treatment; colistin sensitive) are paired with the corresponding even number Kp bacteria (isolated after colistin treatment; colistin resistant) from the same patient. O.D. readings represent the bacterial growth with a background reading of about 0.049+/−0.003.

[3] = tested on: Pseudomonas aeruginosa MDR clinical isolates; format: cell-based; details: Table 3
Description: as §1, §2

[4] = tested on: Klebsiella pneumonia MDR clinical isolates; format: cell-based; details: Table 3
Description: as §1, §2

[5] = tested on: methicillin-resistant Staphylococcus aureus (MRSA) clinical isolates; format: cell-based; details: Table 3
Description: as §1, §2

[6] = In vivo toxicity / maximum tolerated dose; design: species or system Mice (strain: Swiss Webster)
Description: The modified AMPs show a lower toxicity and higher maximum tolerated dosage (MTD) than WLBU2 (SEQ ID No. 26). The MTD for WLBU2 (SEQ ID No. 26) is 15 mg/kg, for Colistin is 10 mg/kg, and SEQ ID No. 15 is 30 mg/kg (FIG. 14A).
Mice (strain: Swiss Webster) were injected with SEQ ID No. 15 peptides intravenously (i.v.) or intraperitoneally (i.p.) at the concentrations indicated. […] Thus, the estimated maximum tolerated dose (MTD) is around 40-50 mpk (i.v.). On a similar setting of testing other AMPS, the MTD for WLBU2 is 15 mpk (i.v.) and 10 mpk (i.v.) for colistin.

S.A. ATCC49775 = assay: Antimicrobial activity of SPLUNC1 proteins (FIG. 2A); format: cell-based; details: S.A. ATCC49775, FIG. 2A
Text: (§3) The AMPs disclosed herein were derived from the naturally secreted antimicrobial protein SPLUNC1. […] FIG. 2C) illustrates the alpha helical structure of alpha4 (A4), the 30 residue sequence used as the template to design the disclosed AMPs listed in Table 2.

MRSA USA300 = assay: Antimicrobial activity of SPLUNC1 proteins (FIG. 2B); format: cell-based; details: MRSA USA300, FIG. 2B
Text: as §3

Molecule | toxicity to primary HBE cells [1] | cytopathology in Hep2 cells (Hep2 epithelial cells) | MIC Ef 25153 ([2]; isolate Ef 25153) | MIC Ef 26125 ([2]; isolate Ef 26125) | MIC PA 82-8 ([3]; isolate PA 82-8) | MIC PA 129-5 ([3]; isolate PA 129-5) | MIC A5 ([4]; isolate A5) | MIC C3 ([4]; isolate C3) | MIC C5 ([4]; isolate C5) | MIC D7 ([4]; isolate D7) | MIC E6 ([4]; isolate E6) | MIC MRSA 150-10 ([5]; isolate 150-10) | MIC MRSA USA300 ([5]; isolate USA300) | MTD ([6]; Swiss Webster, mouse, in vivo, FIG. 14A, read-out: maximum tolerated dosage (MTD)) | maximum tolerated dose (MTD) ([6]; i.v., Swiss Webster mice) | antimicrobial activity (S.A. ATCC49775) | antimicrobial activity (MRSA USA300)
RRWVRRVRRVWRRVVRVVRRWVRR [SEQ ID No. 26, reference compound] | toxic to primary HBE cells | caused cytopathology | <4 µM | <4 µM | 4 µM | <4 µM | >8 µM | 16 µM | 16 µM | <4 µM | <4 µM | 8 µM | <4 µM | 15 mg/kg | 15 mpk |  | 
B1 |  |  |  |  |  |  |  |  |  |  |  |  |  |  |  | significant antimicrobial activity | significant antimicrobial activity
